# Laboratory results published in PubChem BioAssay (NCI).
#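 In this assay, cells in 96-well plates receive the compound at five concentrations for 48 hours. Endpoints are linearly interpolated between the surrounding concentrations. GI50 marks 50% less growth. Definition used: TGI = concentration required for complete inhibition of growth.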
# Key:
# Test in all cases: NCI anticancer screen, dose series, 48 h
# SK-MEL-5 melanoma = system: SK-MEL-5 melanoma
# OVCAR-5 ovarian = system: OVCAR-5 ovarian
# HOP-92 NSCLC = system: HOP-92 NSCLC
# RPMI-8226 leukemia = system: RPMI-8226 leukemia
# SK-OV-3 ovarian = system: SK-OV-3 ovarian
# K-562 leukemia = system: K-562 leukemia
# HL-60(TB) leukemia = system: HL-60(TB) leukemia
# NCI-H226 lung = system: NCI-H226 lung
# MCF7 breast = system: MCF7 breast
# NCI/ADR-RES ovarian = system: NCI/ADR-RES ovarian
Structure (SMILES),TGI (SK-MEL-5 melanoma) [µM],TGI (OVCAR-5 ovarian) [µM],TGI (HOP-92 NSCLC) [µM],TGI (RPMI-8226 leukemia) [µM],TGI (SK-OV-3 ovarian) [µM],TGI (K-562 leukemia) [µM],TGI (HL-60(TB) leukemia) [µM],TGI (NCI-H226 lung) [µM],GI50 (SK-MEL-5 melanoma) [µM],GI50 (MCF7 breast) [µM],TGI (MCF7 breast) [µM],GI50 (OVCAR-5 ovarian) [µM],GI50 (NCI/ADR-RES ovarian) [µM],TGI (NCI/ADR-RES ovarian) [µM],GI50 (RPMI-8226 leukemia) [µM],GI50 (SK-OV-3 ovarian) [µM],GI50 (K-562 leukemia) [µM],GI50 (HL-60(TB) leukemia) [µM],GI50 (NCI-H226 lung) [µM],GI50 (HOP-92 NSCLC) [µM]
CC1=C(C(=O)Nc2ccccc2C)C(c2ccc(C3C(C(=O)Nc4ccccc4C)=CNC=C3C(=O)Nc3ccccc3C)cc2)C(C(=O)Nc2ccccc2C)=C(C)N1,17.8,44.4,46.4,> 73,> 58.2,> 73.4,29.9,33.5,,,,,,,,,,,,
CC(=O)OCC1OC(Sc2ccccn2)C=CC1OC(C)=O (centres undefined),> 100,> 100,> 100,,> 100,> 100,> 100,> 100,,,,,,,,,,,,
C[C@@]1(N2C(=O)OC[C@@H]2c2ccccc2)C(=O)N([C@H](CC(=O)N2CCC(N3CCCCC3)CC2)C(=O)NCc2cccc(C(F)(F)F)c2)[C@@H]1/C=C/c1ccccc1,3.21,9.4,,6.38,4.83,4.82,4.65,39.7,1.81,1.85,4.24,2.78,10.2,24,2.59,2.09,2.07,2.13,22.5,
C[C@]12CC[C@H]3[C@@H](C[C@@H]4N=C(c5ccc(O)cc5)S[C@@]45C[C@H](O)CC[C@]35C)[C@@H]1CC[C@@H]2O,13.1,> 100,,2.5,> 100,> 100,> 100,> 100,3.15,3.34,21.5,13.3,6.77,> 100,0.378,19,3.48,4.09,27.4,
Oc1cc2c(cc1O)-c1[nH]ncc1CC2,> 100,> 100,66.4,,> 100,> 100,76.6,69,,,,,,,,,,,,
CSc1nc2c(c(=O)[nH]1)C(c1ccc(Cl)cc1)C1=C(N2)/C(=C/c2ccc(Cl)cc2)CNC1 (centres undefined),12.4,6.25,,3.14,6.33,15.1,6.26,3.27,3.26,1.94,5.85,2.53,3.29,16.5,0.629,2.66,3.09,2.44,1.62,
CC(C)CC(=O)NS(=O)(=O)c1ccccc1,,> 100,> 100,> 100,> 100,> 100,> 100,> 100,,,,,,,,,,,,
CC1=C(c2cc(C(=O)Nc3nccs3)nc(NC#N)n2)Sc2ccccc2N1,> 100,> 100,> 100,> 100,,> 100,> 100,> 100,,,,,,,,,,,,
O=CC1(C2(C=O)c3ccccc3-c3ccccc32)c2ccccc2-c2ccccc21,4.02,6.34,3.83,,,> 22.6,3.21,7.24,1.95,,,3.21,2.54,6.99,,,2.3,1.75,3.3,1.58
